These results are taken from ChEMBL document CHEMBL1649532, “Trypanocidal activity of 8-methyl-5'-{[(Z)-4-aminobut-2-enyl]-(methylamino)}adenosine (Genz-644131), an adenosylmethionine decarboxylase inhibitor” (Antimicrob Agents Chemother, 2009).

In brackets after ≈: the same amount, converted by molar mass. Activity calls are given as the source filed them. No cut-off for these calls is given here. Bounds are passed on as bounds.

Experiment [1] relates to Trypanosoma brucei rhodesiense. The experiment is described as follows: Trypanocidal activity against Trypanosoma brucei rhodesiense KETRI1992 infected in mouse assessed as average survival time at 2 mg/kg, ip QD administered 24 hrs postinfection. Conditions: route intraperitoneal. The format is functional.
The subject of experiment [2] is Trypanosoma brucei rhodesiense. Description: Trypanocidal activity against Trypanosoma brucei rhodesiense KETRI1992 infected in mouse assessed as protection against trypanosomal infection at 2 mg/kg, ip QD administered 24 hrs postinfection. The class given is functional, organism-based. Set-up: dose 2 mg/kg.
The subject of experiment [3] is Trypanosoma brucei rhodesiense. The experiment is described as follows: Trypanocidal activity against Trypanosoma brucei rhodesiense KETRI243 infected in mouse assessed as average survival time at 2 mg/kg, ip QD administered 24 hrs postinfection. The class given is functional. Conditions: route intraperitoneal.
In experiment [4] the test system is Trypanosoma brucei rhodesiense. The experiment is described as follows: Trypanocidal activity against Trypanosoma brucei rhodesiense KETRI243 infected in mouse assessed as protection against trypanosomal infection at 2 mg/kg, ip QD administered 24 hrs postinfection. The format is functional, organism-based. Set-up: dose 2 mg/kg.
Experiment [5] deals with Trypanosoma brucei brucei. Description: Trypanocidal activity against Trypanosoma brucei brucei EATRO infected in mouse assessed as mean survival time at 2 mg/kg, ip QD for 4 days. Conditions: route intraperitoneal. The class given is functional.
In experiment [6] the test system is Trypanosoma brucei rhodesiense. Description: Trypanocidal activity against Trypanosoma brucei rhodesiense KETRI2002 infected in mouse assessed as protection against trypanosomal infection at 2 mg/kg, ip QD administered 24 hrs postinfection. The class given is functional, organism-based. More on the design: dose 2 mg/kg.
Experiment [7] relates to Trypanosoma brucei rhodesiense. Description: Trypanocidal activity against Trypanosoma brucei rhodesiense KETRI243 after 48 hrs. The class given is functional, organism-based. Conditions: KETRI243, 48 h.
Experiment [8] deals with Trypanosoma brucei brucei. The experiment is described as follows: Trypanocidal activity against Trypanosoma brucei brucei EATRO after 48 hrs. The format is functional, organism-based.
For experiment [9], the system named is Trypanosoma brucei rhodesiense. The experiment is described as follows: Trypanocidal activity against Trypanosoma brucei rhodesiense KETRI2538 after 48 hrs. The class given is functional, organism-based. The note with it: KETRI2538, 48 h.
Experiment [10] deals with Trypanosoma brucei rhodesiense. Description: Ratio of Kinact to Kiapp for Trypanosoma brucei rhodesiense AdoMetDC.

Turning to `N=C(N)c1ccc(OCCCCCOc2ccc(C(=N)N)cc2)cc1` [PENTAMIDINE], the MST was 18 days in experiment [1], 11.6 days in [3] and >35 days in experiment [5]. Further, the result in experiment [2] and in experiment [4] was inactive. Moreover, the outcome in experiment [6] was Active.

As to `CN(C/C=C\CN)C[C@H]1O[C@@H](n2cnc3c(N)ncnc32)[C@H](O)[C@@H]1O`, the figures for the half-maximal inhibitory concentration (IC50) in experiment [7], in experiment [8] and in [9] were 0.02 mg/L (≈ 0.0572 µM), 0.05 mg/L (≈ 0.143 µM) and 0.021 mg/L (≈ 0.0601 µM), respectively. In [10], the Activity was found to be 1.5 min⁻¹ M⁻¹.
